Data as given in US7655677B2, “Composition and method for controlling house insect pest” (priority 2002, dated 2010).

Key:
Format in all cases: in vivo
[1] = test system: Lasius japonicus; test: Test Example 23: skim milk poison bait placed near ant nest, number of ants passing the gate per minute; conditions: 0.2% (W/W) bait, ants through the gate per minute
Description: 2 g of this poison bait chemical was placed directly on an optional ground surface distanced by about 50 cm from the gate of the ant nest. Before, 2 days after, 3 days after and 5 days after placing the poison bait chemical, the number of ants going out and coming in through the gate per minute was examined.

[2] = test system: Priplaneta americana; test: Test Example 12: mouse feed poison bait, mortality with time; conditions: bait 1%
Procedure: 1 g of feeding stuff for mice was treated with 0.5 ml of an acetone solution containing 10 mg of a sample compound and put in a constant temperature chamber at 40° C. for 20 hours to sufficiently evaporate acetone, whereby a poison bait chemical containing 1% of the sample compound was prepared. Then, this poison bait chemical was put into a cup together with a wet cotton, and 10 […] (Priplaneta americana) were released and kept at 25° C. in a breeding room, whereby the mortality was examined as the time passed.

[3] = test system: Coptotermes formosanus; test: Test Example 24: treated filter paper in Petri dish, termite mortality on 21st or 28th day; conditions: 21st day
Procedure: Mortality (%)=(Number of dead termite workers/15 termite workers)×100
Further, by the Colby's formula, the theoretical value (%) of mortality can be calculated. In a case where the actual mortality (%) is higher than the theoretical value (%), it can be said that the composition of the present invention has a synergistic effect for controlling the house insect pest.
A filter paper having a diameter of 80 mm was placed in a plastic Petri dish, and 1 ml of a pesticide solution having a predetermined concentration was dropped thereon, whereupon 10 termite workers (Coptotermes formosanus) were released, and a cover was put on the Petri dish. This plastic Petri dish was put in a container having wet cotton laid over the bottom and maintained at room temperature of 25° C. On 21 or 28th day after the treatment, the number of dead termites in the Petri dish was examined, and the mortality was calculated in the same manner as Test Example 1.

[4] = test system: Coptotermes formosanus; test: Test Example 20: treated sandy soil, termite mortality and abnormal ratio with time
Procedure: Sandy soil passed through a sieve of 20 mesh, was dried at a temperature of 60° C. to a constant weight, and 4 g of the soil thus obtained, was packed into a cup having a diameter of 60 mm. 1 ml of a pesticide solution adjusted to a predetermined concentration was added and thoroughly mixed, whereupon 15 termite workers (Coptotermes formosanus) were leased. The cup was placed in a container having wet cotton laid over the bottom, and the container was maintained at room temperature of 25° C., whereby the number of dead termites in the cup was examined as the time passed, and the mortality was calculated.

[5] = test system: Reticulitermes speratus; test: Test Example 10: coated Japanese red pine wood block, termite mortality and weight loss after 24 days; conditions: wood block coated with 0.2% solution
Procedure: Mean weight loss (%) of the wood block=(W1−W2/W1)×100
A solution containing a sample compound in a predetermined concentration was coated by a paint brush in an amount of 110±10 mg on a rectangular parallelpiped wood block of Japanese red pine (20 mm×10 mm×10 mm). The treated wood block was naturally dried in a dark room of 25° C. for 14 days. Then, the treated wood block and a non-treated wood block were dried at a temperature of 60° C. for 72 hours, and their weights (W1) were measured, and they were used as test specimens. Such a test specimen was put into a cylindrical cup made of acrylic resin (i.e. a cup having a hole with a diameter of 10 mm formed in the bottom and having hard plaster (Dental Stone) set at the bottom in a thickness of 10 mm), and 150 termite workers and 10 termite soldiers (Reticulitermes speratus) were released thereon. The cup was placed in a container having wet cotton laid over the bottom, and the container was maintained at room temperature of 25° C. for 24 days, whereupon the mortality of termites in the cup was examined. Further, the test specimen was taken out from the cup, and the deposited substance was removed from the surface of the test specimen. After drying at a temperature of 60° C. for 72 hours, it was weighed to obtain the weight (W2), whereupon the mean weight loss was calculated.

[6] = 1000 ppm solution, 4 Days later

In the case of `CC(=NN=C(Cc1ccc(C(F)(F)F)cc1)c1ccc(F)cc1)N(C)C` [Compound No. II-2, [4′-fluoro-2-(4-trifluoromethylphenyl)acetophenone]N′-[1-(dimethylamino)ethylidene]hydrazone], the “Ants passing the nest gate per minute” value ([1]; 2 Days later) is reported as 11, the “Ants passing the nest gate per minute” value ([1]; 3 Days later) is reported as 3 and the “Ants passing the nest gate per minute” value ([1]; 5 Days later) is reported as 0. For the same compound, the “Ants passing the nest gate per minute” value ([1]; Before placing poison bait chemical) was 153, the Mortality ([2]; 1 Day later) was 0% and the Mortality ([2]; 8 Days later) was 0%. The Mortality ([2]; 48 Days later) was 30%, the Mortality ([3]; II-2 5 ppm alone) was 0% and the Mortality ([3]; II-2 10 ppm alone) was 20%. The Mortality ([3]; II-2 20 ppm alone) was 60%, the Mortality ([4]; 250 ppm solution, 1 Day later) was 0% and the Mortality ([4]; 250 ppm solution, 4 Days later) was 0%. The abnormal ratio ([4]; 250 ppm solution, 4 Days later) was 7%, the Mortality ([4]; 250 ppm solution, 11 Days later) was 100% and the Mortality ([4]; 1000 ppm solution, 1 Day later) was 0%. For the same compound, the Mortality [4, 6] was 73%, the abnormal ratio [4, 6] was 27% and the Mortality ([4]; 1000 ppm solution, 11 Days later) was 100%. The Mortality ([4]; 4000 ppm solution, 1 Day later) was 0%, the abnormal ratio ([4]; 4000 ppm solution, 1 Day later) was 100% and the Mortality ([4]; 4000 ppm solution, 4 Days later) was 100%. The Mortality ([4]; 4000 ppm solution, 11 Days later) was 100%, the Mean weight loss [5] was 2.9% and the “Mortality Termite soldiers” value [5] was 100%. For the same compound, the “Mortality Termite workers” value [5] was 100%.
